What all share (type): biochemical
In one assay the target is T1, IKK2 (Homo sapiens, UniProt O14920).
T1 construct: His-tag (N); made in house
T1 sequence (O14920 1-756): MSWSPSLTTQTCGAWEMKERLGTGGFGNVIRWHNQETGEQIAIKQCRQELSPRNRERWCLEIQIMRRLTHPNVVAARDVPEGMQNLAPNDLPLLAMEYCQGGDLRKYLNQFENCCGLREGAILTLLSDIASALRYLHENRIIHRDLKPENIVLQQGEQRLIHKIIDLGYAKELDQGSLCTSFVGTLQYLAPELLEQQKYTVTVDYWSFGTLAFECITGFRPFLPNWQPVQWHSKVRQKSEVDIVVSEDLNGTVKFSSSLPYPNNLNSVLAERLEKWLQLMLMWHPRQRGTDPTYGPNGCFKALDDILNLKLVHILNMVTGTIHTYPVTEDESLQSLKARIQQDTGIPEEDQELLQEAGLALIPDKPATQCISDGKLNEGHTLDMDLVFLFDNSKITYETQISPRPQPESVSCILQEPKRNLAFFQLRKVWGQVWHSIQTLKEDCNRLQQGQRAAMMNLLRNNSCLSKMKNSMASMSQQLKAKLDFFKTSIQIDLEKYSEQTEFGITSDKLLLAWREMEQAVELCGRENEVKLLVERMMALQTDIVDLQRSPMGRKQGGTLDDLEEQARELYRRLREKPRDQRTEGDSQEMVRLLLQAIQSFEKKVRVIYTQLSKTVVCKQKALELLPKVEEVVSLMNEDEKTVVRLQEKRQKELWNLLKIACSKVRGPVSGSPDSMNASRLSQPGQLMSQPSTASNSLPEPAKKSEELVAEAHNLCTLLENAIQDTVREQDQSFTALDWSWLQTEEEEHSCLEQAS
Nature of the assay: IKK2 (IKKβ) kinase assay (HTRF). The following applies: read-out: IKK2 inhibition% at 0.8 μg/mL (~2 μM). Here is the method:
(§1) GSK3β belongs to CMGC family. Here, the other family members were used to evaluate the selectivity of GSK3β inhibitors, including PKC-epsilon (AGC family), JAK2 (TK family), Braf (TKL family), DRAK2 (CAMK family) and IKKβ (other family).The recombinant GST-GSK-3βprotein was expressed in Escherichia coli strain BL21-Codon Plus (DE3), purified by GSTrap affinity chromatography, and cleaved by thrombin. The GSK-3β kinase assay was carried out with the Z´-LYTETM Kinase Assay kit Ser/Thr 9 Peptide substrate (Invitrogen, Grand, NY, USA) in 10 μL reaction volume containing 50 nM enzyme, 30 μM ATP and 2 μM substrate peptide. Drak2 Proteins were presented by professor Jiang-ping Wu (Laboratory of Immunology, Research Centre, CHUM, Notre Dame Hospital, Pavilion DeSève). The Drak2 kinase reaction was performed in a final assay volume of 3.4 μL using the ADP-GLO Kinase Assay Kit (Promega, Madison, WI, USA), according the ADP-GLO protocol and read on an EnVision plate reader. The recombinant PKC-epsilon, IKKβ, and JAK2 with N-terminal His-tag were expressed using baculovirus expression system and purified with Ni-Beads. BRAF protein was from Carna Biosciences, Inc. (Kobe Port Island, Japan). And the related kinase reactions were performed in a final assay volume of 10 μL using the related HTRF Assay Kit (Cisbio, Codolet, France). Reactions were according the HTRF protocol and read on an EnVision plate reader. All reactions were carried out in triplicate. […] Data were expressed as mean ± SE.
For orientation: Time-resolved FRET reads energy transfer from a long-lived donor to a nearby acceptor.

A further assay addresses T2, Drak2 (Homo sapiens, UniProt O94768).
T2 sequence (O94768 1-372): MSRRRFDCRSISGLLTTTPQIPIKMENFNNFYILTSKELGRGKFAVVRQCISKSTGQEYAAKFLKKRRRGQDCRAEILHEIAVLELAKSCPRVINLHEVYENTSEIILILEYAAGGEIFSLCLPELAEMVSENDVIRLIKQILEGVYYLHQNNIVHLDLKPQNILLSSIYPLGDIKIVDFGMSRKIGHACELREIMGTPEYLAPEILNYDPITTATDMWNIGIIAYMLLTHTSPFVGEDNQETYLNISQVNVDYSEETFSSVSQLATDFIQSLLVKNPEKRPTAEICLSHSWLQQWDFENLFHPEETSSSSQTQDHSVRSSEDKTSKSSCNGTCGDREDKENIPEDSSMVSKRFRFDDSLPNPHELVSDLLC
Description: Drak2 kinase assay (ADP-GLO). The conditions noted are these: read-out: Drak2 inhibition% at 0.8 μg/mL (~2 μM). On the procedure: as §1

In a further assay the target is T3, JAK2 (Homo sapiens, UniProt O60674).
T3 construct: His-tag (N); made in house
T3 sequence (O60674 whole entry): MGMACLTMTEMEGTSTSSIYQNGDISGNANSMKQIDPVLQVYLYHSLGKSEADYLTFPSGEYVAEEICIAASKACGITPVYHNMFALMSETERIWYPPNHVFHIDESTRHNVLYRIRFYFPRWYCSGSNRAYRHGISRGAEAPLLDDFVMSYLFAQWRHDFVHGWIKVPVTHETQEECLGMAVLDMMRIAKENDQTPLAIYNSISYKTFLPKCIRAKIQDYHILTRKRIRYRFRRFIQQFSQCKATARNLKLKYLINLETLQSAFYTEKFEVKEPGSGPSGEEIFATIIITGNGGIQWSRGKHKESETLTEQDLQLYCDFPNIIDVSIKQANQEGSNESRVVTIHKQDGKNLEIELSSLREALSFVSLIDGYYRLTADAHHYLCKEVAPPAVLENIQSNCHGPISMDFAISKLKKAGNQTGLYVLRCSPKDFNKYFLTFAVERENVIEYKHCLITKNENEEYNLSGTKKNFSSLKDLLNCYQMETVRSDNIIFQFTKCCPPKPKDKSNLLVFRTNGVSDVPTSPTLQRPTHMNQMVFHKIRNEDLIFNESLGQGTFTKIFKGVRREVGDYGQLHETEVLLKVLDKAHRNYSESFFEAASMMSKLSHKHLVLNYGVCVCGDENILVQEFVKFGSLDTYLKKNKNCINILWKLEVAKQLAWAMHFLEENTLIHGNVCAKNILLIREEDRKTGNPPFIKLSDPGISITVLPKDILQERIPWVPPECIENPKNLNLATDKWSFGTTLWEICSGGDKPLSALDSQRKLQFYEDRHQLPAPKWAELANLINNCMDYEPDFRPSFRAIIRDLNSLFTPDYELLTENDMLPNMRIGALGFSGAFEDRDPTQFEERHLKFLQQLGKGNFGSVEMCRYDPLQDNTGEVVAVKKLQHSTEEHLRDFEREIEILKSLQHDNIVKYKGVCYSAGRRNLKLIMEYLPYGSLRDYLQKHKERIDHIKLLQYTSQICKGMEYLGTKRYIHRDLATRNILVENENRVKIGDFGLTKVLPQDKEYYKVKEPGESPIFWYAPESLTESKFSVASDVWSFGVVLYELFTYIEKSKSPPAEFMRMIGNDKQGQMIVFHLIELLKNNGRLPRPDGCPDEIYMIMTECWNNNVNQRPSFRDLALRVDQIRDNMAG
Nature of the assay: JAK2 kinase assay (HTRF). The following applies: read-out: JAK2 inhibition% at 0.8 μg/mL (~2 μM). On the procedure: as §1

For another assay, the target named is T4, GSK-3β (Homo sapiens, UniProt P49841).
T4 construct: GST (N, cleaved yes); made in house; host or cells: Escherichia coli BL21-Codon Plus (DE3)
T4 sequence (P49841 whole entry): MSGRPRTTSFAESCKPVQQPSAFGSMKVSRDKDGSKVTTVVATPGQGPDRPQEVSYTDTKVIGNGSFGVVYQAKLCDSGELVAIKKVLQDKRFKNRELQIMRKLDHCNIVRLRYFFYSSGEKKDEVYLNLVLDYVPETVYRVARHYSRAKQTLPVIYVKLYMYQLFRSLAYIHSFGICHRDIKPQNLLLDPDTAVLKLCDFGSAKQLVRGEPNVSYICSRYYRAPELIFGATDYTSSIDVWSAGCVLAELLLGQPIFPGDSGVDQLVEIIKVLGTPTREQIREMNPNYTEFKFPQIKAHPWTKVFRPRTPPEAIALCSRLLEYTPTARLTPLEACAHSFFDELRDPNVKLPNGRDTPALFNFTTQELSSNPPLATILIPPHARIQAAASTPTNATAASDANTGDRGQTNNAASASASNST
Description: GSK-3β kinase assay (Z'-LYTE Kinase Assay kit Ser/Thr 9 Peptide). On the procedure:
as §1

This is an account of results in article PMC6270165, “Synthesis and Biological Evaluation of 3-Benzisoxazolyl-4-indolylmaleimides as Potent, Selective Inhibitors of Glycogen Synthase Kinase-3β” (Molecules, 2013).

Broadly, the IC50 is the concentration that inhibits the measured activity by half.

Consider `O=C1NC(=O)C(c2cn(CCCN3CCOCC3)c3ccc(Br)cc23)=C1c1noc2ccccc12` [7c, 3-(Benzo[d]isoxazol-3-yl)-4-(5-bromo-1-(3-morpholinopropyl)-1H-indol-3-yl)-1H-pyrrole-2,5-dione], for which the figures for the inhibition at 2 µM at IKK2, at Drak2 and on JAK2 were 13.1%, 1.67% and 0.1%, respectively. Besides, on GSK-3β (50 nM enzyme, 30 μM ATP, 2 μM substrate peptide, triplicate, mean ± SE, read-out: GSK-3β inhibitory activity IC50 (nM) ± SE), the half-maximal inhibitory concentration (IC50) was 10.2 ± 5.9 nM. Also, the “GSK-3β inhibitory activity, fold increase as compared to 7h” value at GSK-3β (ratio of IC50 values, versus 7h) came out at 14 fold. The “Selectivity for GSK-3β over other tested kinases” value on GSK-3β (versus PKC-epsilon, JAK2, BRAF, IKK2 and Drak2) is recorded as “high selectivity”.
